Measured values reported in PMC6321172, “Analysis of Vipadenant and Its In Vitro and In Vivo Metabolites via Liquid Chromatography-Quadrupole-Time-of-Flight Mass Spectrometry” (Pharmaceutics, 2018).
Read-outs that look alike come from different tables or passages of the source.

What was measured:
[1] = Stock solution stability assessment (1 mg/mL in DMSO); type: physicochemical; conditions: for Mean Accuracy (%), stock storage stability: DMSO stock, 6 months, −80°C
Protocol: (§1) Each stability assessment was carried out in blank rat plasma. Three levels of QC (low, medium and high) were used in the short-term, freeze-thaw, long-term and post-preparative stability assessments and two levels of QC (medium & high) were used in stock solution stability assessment. The short term stability assessment was carried out at room temperature (RT) over 4 h and the results obtained were compared with the control (0 min). In the long-term stability assessment, the samples kept frozen at −80 °C for 2 weeks were compared with the freshly prepared control group samples. The freeze-thaw stability was evaluated over three cycles of freezing (−80 °C) and thawing (RT). The post-preparative stability was assessed for the QC samples kept in an auto-sampler (10 °C) for 24 h. As a separate stock-solution stability assessment, the vipadenant stock-solution prepared at 1 mg/mL (DMSO) was stored at −80 °C for 6 months and its stability was evaluated. The stability test results were evaluated by confirming that the mean accuracy (%) of the nominal value which should be within ± 25% range.

[2] = Rat pharmacokinetic study after IV or PO administration; type: in vivo; conditions: for Cmax: read-out: C0 or Cmax; for Vd: read-out: Vss
Protocol: Twenty microliters of the rat pharmacokinetics samples were placed in cluster tubes. As a make-up solution, 4 μL of DMSO was added to the cluster tube and 100 μL of ACN containing ISTD (verapamil) was also added. The mixture was capped, gently shaken for approximately 1 min and was then centrifuged for 5 min at 12,000 rpm (4 °C). Following the centrifugation, 50 μL supernatant was transferred to a clean test tube and was diluted with 100 μL of distilled water. The resulting mixture was then transferred to an LC-vial and 10 μL was injected to the LC-QTOF-MS. The same procedure was also applied to the STD samples and QC samples.
Data acquisition and LC-QTOF-MS operation was conducted using Analyst® TF Version 1.6 (Sciex). MultiQuant® Version 2.1.1 (Sciex) was used for the peak integration for vipadenant quantification. PeakView® Version 2.2 and MetabolitePilot™ Version 2.0.2 were used for the structural elucidation of vipadenant metabolites. […] Pharmacokinetic parameters were calculated in a non-compartmental analysis using WinNonlin® version 8.0.0 (Certara, Princeton, NJ, USA).
Male sprague-dawley rats (300 ± 10 g) were purchased from the Samtako Biokorea Co. (Gyeonggi, Korea) and housed in groups of 3~4 per cage and given standard rodent chow. […] Rats were distributed into four different groups (three rats per group; 1 & 2 mg/kg IV group and 2 & 5 mg/kg PO group). Blood was drawn into the heparinized tubes after IV (1 and 2 mg/kg) or PO (2 and 5 mg/kg) administration and was immediately centrifuged at 10,000 rpm for 5 min. […] The supernatant of the centrifuged samples (plasma) were transferred to the clean tubes and stored at −20 °C until analysis.
During the sample preparation of the PK samples, QC samples were included for the assurance of the analytical run.

[3] = In-house metabolic stability study (rat liver microsome); type: in vitro ADME; conditions: liver microsomes, read-out: in vitro intrinsic clearance
[4] = Preliminary stability assessment in rat plasma QC samples; type: physicochemical; conditions: for Mean Accuracy (%), post-preparative stability: processed rat plasma samples, 24 h, 4 °C; for Mean Accuracy (%), long-term stability: 2 weeks; for Mean Accuracy (%), long-term stability / Mean Accuracy (%), freeze-thaw stability: −80 °C; for Mean Accuracy (%), freeze-thaw stability: 3 cycles; for Mean Accuracy (%), short term stability: 4 h, RT
Protocol: as §1, with “The post-preparative stability was assessed for the QC samples kept in an auto-sampler (10 °C) for 24 h.” left out

[5] = male, Sprague-Dawley, plasma, rat, IV 1 mg/kg
[6] = male, Sprague-Dawley, plasma, rat, IV 2 mg/kg
[7] = male, Sprague-Dawley, plasma, rat, PO 2 mg/kg
[8] = male, Sprague-Dawley, plasma, rat, PO 5 mg/kg
[9] = rat plasma, nominal QC 15 ng/mL
[10] = rat plasma, nominal QC 165 ng/mL
[11] = rat plasma, nominal QC 1820 ng/mL

Cc1cc(Cn2nnc3c(-c4ccco4)nc(N)nc32)ccc1N [vipadenant, Vipadenant]
Mean Accuracy (%), stock storage stability ([1]; nominal QC 165 ng/mL): 102.5% | Mean Accuracy (%), stock storage stability ([1]; nominal QC 1820 ng/mL): 95.6% | time stock solution showed stability ([1]; stock solution prepared in DMSO): 6 months | AUC(0-t) [2, 5]: 451 ng·h/mL | Tmax [2, 5]: 2.6 min | clearance [2, 5]: 37.8 ± 7.2 mL/min/kg | half-life [2, 5]: 48 ± 5.8 min | Cmax [2, 5]: 2210 ± 1160 ng/mL | Vd [2, 5]: 1.08 ± 0.223 L/kg | AUC(0-t) [2, 6]: 1510 ng·h/mL | Tmax [2, 6]: 2 min | clearance [2, 6]: 22.5 ± 4.3 mL/min/kg | half-life [2, 6]: 71.2 ± 8.5 min | Cmax [2, 6]: 3090 ± 222 ng/mL | Vd [2, 6]: 1.21 ± 0.174 L/kg | AUC(0-t) [2, 7]: 279 ng·h/mL | Tmax [2, 7]: 7.5 min | half-life [2, 7]: 65.2 ± 20.2 min | Cmax [2, 7]: 230 ± 88 ng/mL | AUC(0-t) [2, 8]: 887 ng·h/mL | Tmax [2, 8]: 30 min | half-life [2, 8]: 116 ± 59 min | Cmax [2, 8]: 296 ± 87.3 ng/mL | bioavailability ([2]; male, Sprague-Dawley, plasma, rat, PO 2 and 5 mg/kg vs IV 1 and 2 mg/kg, read-out: BA (average bioavailability)): 30.4 ± 8.9% | clearance (in words) ([2]; rat IV study): low to moderate clearance | CLint scaled [3]: 20 mL/min/kg | time processed samples stable ([4]; auto-sampler storage condition (10 °C)): at least 24 h | Mean Accuracy (%), post-preparative stability ([4]; nominal QC 15 ng/mL): 114.8% | Mean Accuracy (%), post-preparative stability ([4]; nominal QC 165 ng/mL): 99.2% | Mean Accuracy (%), post-preparative stability ([4]; nominal QC 1820 ng/mL): 94.9% | Mean Accuracy (%), long-term stability [4, 9]: 111.8% | Mean Accuracy (%), long-term stability [4, 10]: 104.1% | Mean Accuracy (%), long-term stability [4, 11]: 103.7% | Mean Accuracy (%), freeze-thaw stability [4, 9]: 118.8% | Mean Accuracy (%), freeze-thaw stability [4, 10]: 88.5% | Mean Accuracy (%), freeze-thaw stability [4, 11]: 91.1% | Mean Accuracy (%), short term stability [4, 9]: 97.8% | Mean Accuracy (%), short term stability [4, 10]: 90.5% | Mean Accuracy (%), short term stability [4, 11]: 92.6% | freeze-thaw stability (in words) ([4]; rat plasma, three cycles of freeze-thawing (RT vs. −80 °C)): stable | time stable, long-term stability test ([4]; rat plasma, −80 °C storage): at least 2 weeks | time stable in rat plasma QC sample ([4]; room temperature): at least 4 h
